Reference: PubChem BioAssay AID248 (DTP/NCI, 2004)
“And” between values parts separate entries of the source, which are not always exact repeats. Equal values may be shown once. Toxic doses and inconclusive results are not listed.

System: L1210 leukemia ip in BDF1 mice, survival T/C
Assay: NCI In Vivo Anticancer Drug Screen. Data for tumor model L1210 Leukemia (intraperitoneal) in B6D2F1 (BDF1) mice
Conditions: endpoint: mean survival time, higher = longer survival
Summary of the method: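 In this screen, tumor-bearing mice given compound are compared to those given vehicle, and their survival values are reported as a treated-to-control quotient.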

[1] = dose: 100.0 mg/kg/injection, schedule: Q04DX002 (ip), vehicle: saline with Tween-80
[2] = dose: 200.0 mg/kg/injection, schedule: Q04DX002 (ip), vehicle: saline with Tween-80
[3] = dose: 100.0 mg/kg/injection, schedule: Q04DX003 (ip), vehicle: saline with Tween-80
[4] = dose: 200.0 mg/kg/injection, schedule: Q04DX003 (ip), vehicle: saline with Tween-80
[5] = dose: 400.0 mg/kg/injection, schedule: Q04DX003 (ip), vehicle: saline with Tween-80

## O=C1CC(N2CCCCC2)C(=O)N1c1ccccc1 (stereo not drawn)
[1]
  T/C: 92 % of control
[2]
  T/C: 95 % of control

## CCOC(=O)N1CC2CCc3c(ccc4ccccc34)N2C1=O (stereo not drawn)
dose: 100.0 mg/kg/injection, schedule: Q01DX001 (ip), vehicle: other
  T/C: 97 % of control
dose: 200.0 mg/kg/injection, schedule: Q01DX001 (ip), vehicle: other
  T/C: 92 % of control
dose: 400.0 mg/kg/injection, schedule: Q01DX001 (ip), vehicle: other
  T/C: 95 % of control

## O=C(Cc1ccccc1)NCc1ccccc1Cl
dose: 25.0 mg/kg/injection, schedule: Q01DX009 (ip), vehicle: saline with Tween-80
  T/C: 103 % of control
dose: 50.0 mg/kg/injection, schedule: Q01DX009 (ip), vehicle: saline with Tween-80
  T/C: 94 % of control
dose: 100.0 mg/kg/injection, schedule: Q01DX009 (ip), vehicle: saline with Tween-80
  T/C: 96 % of control and 87 % of control
[1]
  T/C: 96 % of control
dose: 150.0 mg/kg/injection, schedule: Q01DX009 (ip), vehicle: saline with Tween-80
  T/C: 89 % of control
[2]
  T/C: 107 % of control
dose: 225.0 mg/kg/injection, schedule: Q01DX009 (ip), vehicle: saline with Tween-80
  T/C: 94 % of control
dose: 335.0 mg/kg/injection, schedule: Q01DX009 (ip), vehicle: saline with Tween-80
  T/C: 91 % of control
dose: 400.0 mg/kg/injection, schedule: Q04DX002 (ip), vehicle: saline with Tween-80
  T/C: 111 % of control

## COc1cc2ccc3c(c2cc1OC)CCc1cnoc1-3
[3]
  T/C: 95 % of control
[4]
  T/C: 98 % of control
[5]
  T/C: 98 % of control

## CC1CN=C(c2ccc(NC(=O)Nc3ccc(C(=O)Nc4ccc(C5=NCC(C)N5)cc4)cc3)cc2)N1 (stereo not drawn)
dose: 0.23 mg/kg/injection, schedule: Q01DX009 (ip), vehicle: saline
  T/C: 96 % of control
dose: 0.94 mg/kg/injection, schedule: Q01DX009 (ip), vehicle: saline
  T/C: 96 % of control
dose: 7.5 mg/kg/injection, schedule: Q01DX Z (ip), vehicle: saline
  T/C: 150 % of control
dose: 15.0 mg/kg/injection, schedule: Q01DX Z (ip), vehicle: other
  T/C: 204 % of control
dose: 15.0 mg/kg/injection, schedule: Q01DX Z (ip), vehicle: saline
  T/C: 277 % of control
dose: 15.0 mg/kg/injection, schedule: Q01DX Z (oral), vehicle: saline
  T/C: 103 % of control
dose: 30.0 mg/kg/injection, schedule: Q01DX Z (ip), vehicle: other
  T/C: 115 % of control
dose: 30.0 mg/kg/injection, schedule: Q01DX Z (oral), vehicle: saline
  T/C: 103 % of control
dose: 60.0 mg/kg/injection, schedule: Q01DX Z (oral), vehicle: saline
  T/C: 103 % of control
dose: 120.0 mg/kg/injection, schedule: Q01DX Z (oral), vehicle: saline
  T/C: 102 % of control

## CCOC(=O)C(CCC1=NC(C)(C)CC(C)O1)C(=O)OCC (stereo not drawn)
[3]
  T/C: 94 % of control
[4]
  T/C: 101 % of control
[5]
  T/C: 94 % of control

## CC1CCC2C(C1)N(c1ccccc1)OC2(C)C (stereo not drawn)
dose: 100.0 mg/kg/injection, schedule: Q04DX003 (ip), vehicle: Klucel (hydroxypropylcellulose) (HPC)
  T/C: 100 % of control
dose: 200.0 mg/kg/injection, schedule: Q04DX003 (ip), vehicle: Klucel (hydroxypropylcellulose) (HPC)
  T/C: 94 % of control
dose: 400.0 mg/kg/injection, schedule: Q04DX003 (ip), vehicle: Klucel (hydroxypropylcellulose) (HPC)
  T/C: 102 % of control
